Measurements from patent publication US10377731B2, “Compositions and methods for cancer treatment” (Boston Biomedical, Inc., priority 2007, dated 2019).
Read-outs that look alike come from different tables or passages of the source. Blank lines part the entries; values can stand above or below the compound they belong to.

Assays:
[1] = tested on: Paca2 human pancreatic cancer cells; assay: Colony formation, Paca2 cells, single drugs and combinations; format: cell-based
Experimental: (§1) Paca2 human pancreatic cancer cells, A549 human lung cancer cells, and HepG2 human liver cancer cells (American Type Culture Collection) were cultured in Dulbecco's modified Eagle's medium containing 10% fetal bovine serum, 100 units/mL penicillin, 100 μg/mL streptomycin, and 2 mM L-glutamine. […] Erlotinib was from American Custom Chemicals (San Diego, Calif.). Gemcitabine was from Eli Lilly (Indianapolis, Ind.) in an aqueous 20 mM stock solution. Sorafenib was Mass.). Unless otherwise noted all compounds were solubilized in DMSO at 10 mM and aliquoted at −20° C. Exponentially growing Paca2 pancreatic cancer cells were seeded at 1,000 cells per well in 6-well plates and allowed to attach for 24 hours. Increasing concentrations of individual drugs and those in combination were then added to the media for another 24 hours. After 24 hours exposure, the drug was removed and fresh media was added for the next 10-14 days, allowing for colony formation. Cells were fixed and stained with GIEMSA (Gibco BRL). […] Results are an average of duplicate experiments. Alternatively, MTT assays were performed 72 hours post-treatment in A549 and HepG2 cells.

[2] = tested on: CD44high CSCs (FaDu); assay: Sphere assay (CSC spherogenesis); format: cell-based, human; conditions: applied at approximately ten times their IC50 concentrations for cell death
Experimental: CD44^high cells were isolated by FACS according to the methods described in Ponti et al, with slight modification. Briefly, after trypsinization and recovery of cells for 30 minutes at 37° C. in growth media, cells were pelleted at 400×g and were resuspended in PBS with 2% FBS and 1 mM EDTA at 1×10^6 cells/mL. Cells were then incubated on ice with a 1:100 dilution of CD44-FITC (BD Biosicences, San Diego, Calif.) for 15 minutes. Alternatively, CD24-PE (BD Bioscences, San Diego, Calif.) (1:100) was utilized for negative selection. After washing three times, cells were resuspended at 2×10^6/mL and passed through a […] mesh before sorting
Sphere assay: A reliable method of measuring the self-renewal capacity of cell population if the ability to be cultured as spheres in the absence of serum or attachment. CD44^high FaDu or Hoechst side population cancer stem cells were cultured in ultra low attachment plates in cancer stem cell media (DMEM/F12, B27 Neurobasal supplement, 20 ng/ml EGF, 10 ng/ml FGF, 4 μg/ml insulin, and 0.4% BSA) to allow spheres formation. Typically, sphere formation was evaluated by microscopy after 10-14 days in culture and spheres with >50 cells were scored.
Identification of compounds that inhibit CSC spherogenesis in vitro. One of the hallmarks of cancer stem cells is their ability to self-renew. A reliable method of measuring the self-renewal capacity of cell populations is the ability to be cultured as spheres in the absence of serum or attachment. To compare the ability of compound 401 to other targeted and chemotherapeutic agents, FACS-isolated CD44^high CSCs were grown as spheres for 72 hours before being challenged with a panel of therapeutic agents. […] Tarceva, Sutent, and Gleevec were added at approximately three times their reported therapeutic concentrations.

[3] = tested on: Stat3; assay: Stat3-luciferase (Stat3-Luc) reporter assay, OSM-stimulated HeLa cells; format: cell-based; conditions: for IC50: Homo sapiens, HeLa cells, compound 30 minutes before 25 ng/ml oncostatin M, read 6 hours later, read-out: IC50 in Stat3-Luc assays
Experimental: Luciferase Reporter Assay: HeLa Cells were co-transfected with Stat3-luciferase (Stat3-Luc) reporter vector (Panomics, Fremont, Calif.) and Renilla luciferase (Promega, Madison, Wis.) using Lipofectamine 2000 as described by the manufacturer (Invitrogen). Following transfection, cells were maintained in medium containing 0.5% FBS for 24 hours. Cells were then treated with the indicated compound for 30 minutes prior to the addition of 25 ng/ml oncostatin M (OSM) (R&D Systems, Minneapolis, Minn.) to the medium. 6 hours following OSM addition, cells were harvested and levels of firefly and renilla luciferase were measured using the Dual-Glo Luciferase Assay System as described by the manufacturer (Promega).
Inhibition of Stat3 transcription activity. Compounds were tested for their ability to inhibit Stat3 transcription activation activity in cells using a Stat3-luciferase (Stat3-luc) reporter construct. Cells transfected with Stat3-luc were cultured in reduced serum medium prior to addition of indicated compound for 30 minutes. Cells were then stimulated with 25 ng/ml oncostatin M (OSM) for 6 hours followed by detection of Stat3-luc reporter activity. […] AG490, a known inhibitor of the Jak-Stat pathway, was included as a positive control for Stat3 inhibition.

[4] = tested on: Stat3; assay: Stat3 DNA binding assay (EMSA), HeLa nuclear extract; format: biochemical; conditions: HeLa nuclear extract with constitutively activated Stat3
Experimental: STAT3 DNA Binding Assay: Electrophoretic mobility shift assay (EMSA) was performed as described by the manufacturer (Li-Cor Biosciences, Lincoln, Nebr.). Briefly, nuclear extracts were made from HeLa cells using the NucBuster Protein Extraction Kit as described by the manufacturer (EMD Biosciences, San Diego, Calif.). 5 μg of nuclear extract was pre-incubated with the indicated dose of indicated compound for 30 minutes prior to a 15-minute incubation with the IR700-labeled consensus Stat3 oligonucleotide. Samples were then electrophoresed on a polyacrylamide gel and directly scanned using the Odyssey infrared imaging system (Li-Cor Biosciences). For the enzyme-linked immunosorbent assay (ELISA), 5 μg of nuclear extract was preincubated with indicated concentration of indicated compound for 30 minutes prior to the addition of biotinylated oligo (5′-Biotin-[…]-3′ SEQ ID NO. 1). Stat3-DNA complexes were then captured on streptavidin coated 96 well plates (Pierce, Rockford, Ill.). Bound complexes were then incubated with Stat3 polyclonal antibody (Santa Cruz Biotechnology, Santa Cruz, Calif.) followed by anti-rabbit HRP conjugated secondary antibody (GE Healthcare, Pittsburgh, Pa.). Bound antibody was then visualized by addition of TMB substrate (Pierce) and absorbance measured at 450 nm.
Inhibition of Stat3 DNA-binding activity. Nuclear extracts from HeLa cells, which contain constitutively activated Stat3 as detected by phosphorylation at the tyrosine 705 residue, were used to perform Stat3 EMSAs to monitor Stat3 DNA binding activity. Nuclear extracts were incubated with indicated compound prior to incubation with IR700-labeled Stat3 consensus oligonucleotide. Binding of Stat3 to the oligonucleotide was monitored by gel electrophoresis and detection using a LiCor Odyssey infrared scanner.

[5] = tested on: A549 human lung cancer cells; assay: 72 hour MTT, A549 cells, single drugs and combinations; format: cell-based; conditions: for inhibition at 2.5 µM: read-out: X (% Inhibition)
Experimental: (§2) Cell Viability Determination: For 3-(4,5 dimethylthiazol-2-yl)-2,5-diphenyltetrazolium (MTT) (Sigma-Aldrich, St. Louis, Mo.) analysis, cells were plated in 96 well plates at 10,000 cells per well. 24 hours after plating, compound was added to cells at indicated doses. […] following compound addition, MTT was added to each well (0.5 mg/ml, final concentration) and plates were incubated for an additional 2 hours at 37° C. Medium was then aspirated and the formazan product was solubilized in 100 μl of isopropyl alcohol. The absorbance of each well was measured at 570 nm using a microplate reader.
as §1

[6] = tested on: HepG2 human liver cancer cells; assay: 72 hour MTT, HepG2 cells, single drugs and combinations; format: cell-based
Experimental: as §2, §1

[7] = 72 hour MTT A549 cells, X alone 2.5 μM

Structure (SMILES): CC(=O)O[C@@]12CO[C@@H]1C[C@H](O)[C@@]1(C)C(=O)[C@H](O)C3=C(C)[C@@H](OC(=O)[C@H](O)[C@@H](NC(=O)OC(C)(C)C)c4ccccc4)C[C@@](O)([C@@H](OC(=O)c4ccccc4)[C@H]21)C3(C)C [Docetaxel, reference compound]
- inhibition at 0.00033 µM ([1]; Homo sapiens, PaCa-2, X alone 0.33 nM): 48%
- Effect on CSC sphere proliferation [2]: resistant

- IC50 [3]: ~750 nM
- Inhibition of Stat3 DNA-binding activity (in words) [4]: can inhibit
Structure (SMILES): CC(=O)c1cc2c(o1)C(=O)c1cc(Cl)ccc1C2=O [Compound 416, 2-Acetyl-7-Chloro-naphtho[2,3-b]furan-4,9-dione]

- IC50 [3]: ~750 nM
- Inhibition of Stat3 DNA-binding activity (in words) [4]: can inhibit
Structure (SMILES): CC(=O)c1cc2c(o1)C(=O)c1cc(F)ccc1C2=O [Compound 418, 2-Acetyl-7-Fluoro-naphtho[2,3-b]furan-4,9-dione]

Structure (SMILES): COc1cccc2c1C(=O)c1c(O)c3c(c(O)c1C2=O)C[C@@](O)(C(=O)CO)C[C@@H]3O[C@H]1C[C@H](N)[C@H](O)[C@H](C)O1 [Doxorubicin]
- inhibition at 0.0125 µM ([5]; 72 hour MTT A549 cells, X alone 12.5 nM): 29%
- inhibition at 0.0125 µM ([6]; X alone 12.5 nM): 23%
- inhibition at 0.016 µM ([1]; Homo sapiens, PaCa-2, X alone 16 nM): 89%
- Effect on CSC sphere proliferation [2]: resistant

Structure (SMILES): CNC(=O)c1cc(Oc2ccc(NC(=O)Nc3ccc(Cl)c(C(F)(F)F)c3)cc2)ccn1 [Sorafenib]
- inhibition at 2.5 µM [5, 7]: 40%
- inhibition at 0.625 µM ([6]; X alone 625 nM): 34%
- inhibition at 2.5 µM ([6]; X alone 2.5 μM): 51%
- inhibition at 2 µM ([1]; Homo sapiens, PaCa-2, X alone 2 μM): 66%

- IC50 [3]: ~2000 nM
Structure (SMILES): CC(O)c1cc2c(o1)C(=O)c1ccccc1C2=O (stereo not shown) [Compound 301, 2-(1-hydroxyethyl)-naphtho[2,3-b]furan-4,9-dione]

Structure (SMILES): N.N.O=C([O-])C1(C(=O)[O-])CCC1.[Pt+2] [Carboplatin]
- X (% Inhibition) ([1]; X alone 16 μM): 43%

Structure (SMILES): COc1cc([C@@H]2c3cc4c(cc3[C@@H](O[C@@H]3O[C@@H]5CO[C@@H](C)O[C@H]5[C@H](O)[C@H]3O)[C@H]3COC(=O)[C@H]23)OCO4)cc(OC)c1O [Etoposide]
- inhibition at 0.66 µM ([1]; Homo sapiens, PaCa-2, X alone 660 nM): 58%

Structure (SMILES): CCN(CC)CCNC(=O)c1c(C)[nH]c(/C=C2\C(=O)Nc3ccc(F)cc32)c1C [Sunitinib]
- inhibition at 2.5 µM [5, 7]: 75%
- inhibition at 12 µM ([1]; Homo sapiens, PaCa-2, X alone 12 μM): 52%

Structure (SMILES): O=C(c1ccccc1)c1cc2cc3ccccc3cc2s1 [Compound 1001, reference compound]
- Inhibition of OSM-stimulated Stat3 reporter activity (in words) ([3]; at a much higher concentration (FIG. 4, right panel)): did not inhibit

Structure (SMILES): Nc1ccn([C@@H]2O[C@H](CO)[C@@H](O)C2(F)F)c(=O)n1 [Gemcitabine]
- inhibition at 0.033 µM ([1]; Homo sapiens, PaCa-2, X alone 33 nM): 36%

Structure (SMILES): CS(=O)(=O)CCNCc1ccc(-c2ccc3ncnc(Nc4ccc(OCc5cccc(F)c5)c(Cl)c4)c3c2)o1 [Lapatinib]
- inhibition at 2.5 µM [5, 7]: 66%
- inhibition at 6.75 µM ([1]; Homo sapiens, PaCa-2, X alone 6.75 μM): 27%

Structure (SMILES): C#Cc1cccc(Nc2ncnc3cc(OCCOC)c(OCCOC)cc23)c1 [Erlotinib]
- inhibition at 2.5 µM ([5]; A549, 72 h): 43%
- inhibition at 16 µM ([1]; Homo sapiens, PaCa-2, X alone 16 μM): 26%
